In ChEMBL document CHEMBL3885881, “DrugMatrix”:

Species on record: Rattus norvegicus
Experiment: DrugMatrix - Regimen: Daily Repeat
Assay type: toxicity, organism-based, Sprague-Dawley
Design: regimen Daily Repeat, gender Male, age 6-8 weeks
Conditions: in vivo, po, route oral GAVAGE, vehicle .5 % CMC; for ABSOLUTE BASOPHIL / ABSOLUTE EOSINOPHIL / ABSOLUTE LYMPHOCYTE / ABSOLUTE MONOCYTE / ABSOLUTE SEGMENTED NEUTROPHIL / BASOPHIL / EOSINOPHIL / ERYTHROCYTE COUNT / HEMATOCRIT / HEMOGLOBIN / LEUKOCYTE COUNT / LYMPHOCYTE / MEAN CORPUSCULAR HEMOGLOBIN / MEAN CORPUSCULAR HEMOGLOBIN CONCENTRATION / MEAN CORPUSCULAR VOLUME / MONOCYTE / NEUTROPHIL / NUCLEATED RED BLOOD CELLS / PLATELET COUNT: tissue Blood; for ALANINE AMINOTRANSFERASE / ALBUMIN / ALKALINE PHOSPHATASE / ASPARTATE AMINOTRANSFERASE / BLOOD UREA NITROGEN / CARBON DIOXIDE / CHLORIDE / CHOLESTEROL / CREATINE PHOSPHOKINASE / CREATININE / GLUCOSE / LACTATE DEHYDROGENASE / LIPASE / PHOSPHORUS / POTASSIUM / SODIUM / TOTAL BILIRUBIN / TOTAL PROTEIN / URIC ACID: tissue Plasma
[1] = 0 mg/kg, 72 h, dose level Control, time 3 day
[2] = 0 mg/kg, 120 h, dose level Control, time 5 day
[3] = 25 mg/kg, 72 h, dose level Low, time 3 day

Which “ABSOLUTE BASOPHIL” value [1] does the source give for `C[C@](O)(CS(=O)(=O)c1ccc(F)cc1)C(=O)Nc1ccc(C#N)c(C(F)(F)F)c1` [(R)-BICALUTAMIDE] here?
The value was 0 CELLS/uL.

And the “ABSOLUTE EOSINOPHIL” value [1]?
Its value is 171.33 CELLS/uL.

What about the “ABSOLUTE LYMPHOCYTE” value [1] of the same compound?
The value was 13776.5 CELLS/uL.

What about the “ABSOLUTE MONOCYTE” value [1] of the same compound?
Its value is 180.83 CELLS/uL.

And the “ABSOLUTE SEGMENTED NEUTROPHIL” value [1]?
Its value is 1121.33 CELLS/uL.

What about the BASOPHIL [1] of the same compound?
The BASOPHIL was 0%.

What about the EOSINOPHIL [1] of the same compound?
Its EOSINOPHIL is 1%.

What about the “ERYTHROCYTE COUNT” value [1] of the same compound?
Its value is 5.56 x10E6/uL.

And the HEMATOCRIT [1]?
The HEMATOCRIT was 34.75%.

And the HEMOGLOBIN [1]?
Its HEMOGLOBIN is 13.68 G/DL.

And the “LEUKOCYTE COUNT” value [1]?
Its value is 15.25 x10E3/uL.

What about the LYMPHOCYTE [1] of the same compound?
The LYMPHOCYTE was 90.17%.

And the “MEAN CORPUSCULAR HEMOGLOBIN” value [1]?
The value was 24.6 pg.

And the “MEAN CORPUSCULAR HEMOGLOBIN CONCENTRATION” value [1]?
Its value is 39.4 G/DL.

What about the “MEAN CORPUSCULAR VOLUME” value [1] of the same compound?
The value was 62.48 fL.

What about the MONOCYTE [1] of the same compound?
Its MONOCYTE is 1.17%.

And the NEUTROPHIL [1]?
The NEUTROPHIL was 7.67%.

And the “NUCLEATED RED BLOOD CELLS” value [1]?
The value was 0 /100WBC.

And the “PLATELET COUNT” value [1]?
The value was 1342 x10E3/uL.

What about the “ALANINE AMINOTRANSFERASE” value [1] of the same compound?
The value was 49.67 u/L.

And the ALBUMIN [1]?
Its ALBUMIN is 4.15 G/DL.

What about the “ALKALINE PHOSPHATASE” value [1] of the same compound?
Its value is 346.83 u/L.

And the “ASPARTATE AMINOTRANSFERASE” value [1]?
The value was 108.17 u/L.

What about the “BLOOD UREA NITROGEN” value [1] of the same compound?
The value was 17.33 mg/dL.

And the “CARBON DIOXIDE” value [1]?
Its value is 25 mmol/L.

And the CHLORIDE [1]?
Its CHLORIDE is 100.83 MEQ/L.

And the CHOLESTEROL [1]?
Its CHOLESTEROL is 66.83 mg/dL.

What about the “CREATINE PHOSPHOKINASE” value [1] of the same compound?
The value was 788 u/L.

And the CREATININE [1]?
The CREATININE was 0.18 mg/dL.

What about the GLUCOSE [1] of the same compound?
Its GLUCOSE is 151.67 mg/dL.

And the “LACTATE DEHYDROGENASE” value [1]?
The value was 982.5 u/L.

What about the LIPASE [1] of the same compound?
Its LIPASE is 10.33 u/L.

And the PHOSPHORUS [1]?
Its PHOSPHORUS is 11.23 mg/dL.

And the POTASSIUM [1]?
The POTASSIUM was 6.37 MEQ/L.

And the SODIUM [1]?
The SODIUM was 141.02 MEQ/L.

What about the “TOTAL BILIRUBIN” value [1] of the same compound?
The value was 0.18 mg/dL.

And the “TOTAL PROTEIN” value [1]?
The value was 5.9 G/DL.

What about the “URIC ACID” value [1] of the same compound?
Its value is 1.8 mg/dL.

What about the “ABSOLUTE BASOPHIL” value [2] of the same compound?
The value was 0 CELLS/uL.

What about the “ABSOLUTE EOSINOPHIL” value [2] of the same compound?
Its value is 69 CELLS/uL.

What about the “ABSOLUTE LYMPHOCYTE” value [2] of the same compound?
The value was 13632.83 CELLS/uL.

And the “ABSOLUTE MONOCYTE” value [2]?
The value was 139.83 CELLS/uL.

What about the “ABSOLUTE SEGMENTED NEUTROPHIL” value [2] of the same compound?
The value was 1225 CELLS/uL.

And the BASOPHIL [2]?
Its BASOPHIL is 0%.

What about the EOSINOPHIL [2] of the same compound?
Its EOSINOPHIL is 0.33%.

And the “ERYTHROCYTE COUNT” value [2]?
Its value is 5.52 x10E6/uL.

What about the HEMATOCRIT [2] of the same compound?
The HEMATOCRIT was 33.98%.

What about the HEMOGLOBIN [2] of the same compound?
The HEMOGLOBIN was 13.22 G/DL.

And the “LEUKOCYTE COUNT” value [2]?
The value was 15.07 x10E3/uL.

And the LYMPHOCYTE [2]?
The LYMPHOCYTE was 90.83%.

And the “MEAN CORPUSCULAR HEMOGLOBIN” value [2]?
Its value is 23.95 pg.

What about the “MEAN CORPUSCULAR HEMOGLOBIN CONCENTRATION” value [2] of the same compound?
Its value is 38.9 G/DL.

What about the “MEAN CORPUSCULAR VOLUME” value [2] of the same compound?
The value was 61.53 fL.

What about the MONOCYTE [2] of the same compound?
The MONOCYTE was 0.83%.

What about the NEUTROPHIL [2] of the same compound?
Its NEUTROPHIL is 8%.

And the “NUCLEATED RED BLOOD CELLS” value [2]?
Its value is 0 /100WBC.

What about the “PLATELET COUNT” value [2] of the same compound?
Its value is 1196 x10E3/uL.

What about the “ALANINE AMINOTRANSFERASE” value [2] of the same compound?
The value was 49.17 u/L.

What about the ALBUMIN [2] of the same compound?
Its ALBUMIN is 4.2 G/DL.

What about the “ALKALINE PHOSPHATASE” value [2] of the same compound?
The value was 352.33 u/L.

And the “ASPARTATE AMINOTRANSFERASE” value [2]?
The value was 89.67 u/L.

And the “BLOOD UREA NITROGEN” value [2]?
The value was 18 mg/dL.

What about the “CARBON DIOXIDE” value [2] of the same compound?
The value was 27.67 mmol/L.

What about the CHLORIDE [2] of the same compound?
The CHLORIDE was 101 MEQ/L.

What about the CHOLESTEROL [2] of the same compound?
Its CHOLESTEROL is 72.83 mg/dL.

What about the “CREATINE PHOSPHOKINASE” value [2] of the same compound?
The value was 417.5 u/L.

And the CREATININE [2]?
The CREATININE was 0.18 mg/dL.

What about the GLUCOSE [2] of the same compound?
Its GLUCOSE is 150.5 mg/dL.

And the “LACTATE DEHYDROGENASE” value [2]?
Its value is 517.33 u/L.

And the LIPASE [2]?
Its LIPASE is 9 u/L.

And the PHOSPHORUS [2]?
Its PHOSPHORUS is 11.87 mg/dL.

And the POTASSIUM [2]?
Its POTASSIUM is 6.57 MEQ/L.

And the SODIUM [2]?
The SODIUM was 143.62 MEQ/L.

And the “TOTAL BILIRUBIN” value [2]?
The value was 0.2 mg/dL.

What about the “TOTAL PROTEIN” value [2] of the same compound?
The value was 6.08 G/DL.

And the “URIC ACID” value [2]?
Its value is 1.45 mg/dL.

What about the “ABSOLUTE BASOPHIL” value [3] of the same compound?
The value was 0 CELLS/uL.

And the “ABSOLUTE EOSINOPHIL” value [3]?
Its value is 0 CELLS/uL.

What about the “ABSOLUTE LYMPHOCYTE” value [3] of the same compound?
The value was 11565 CELLS/uL.

What about the “ABSOLUTE MONOCYTE” value [3] of the same compound?
Its value is 208.33 CELLS/uL.

And the “ABSOLUTE SEGMENTED NEUTROPHIL” value [3]?
Its value is 926.67 CELLS/uL.

And the BASOPHIL [3]?
Its BASOPHIL is 0%.

And the EOSINOPHIL [3]?
Its EOSINOPHIL is 0%.

What about the “ERYTHROCYTE COUNT” value [3] of the same compound?
The value was 5.66 x10E6/uL.

And the HEMATOCRIT [3]?
Its HEMATOCRIT is 35.2%.

And the HEMOGLOBIN [3]?
The HEMOGLOBIN was 13.9 G/DL.

What about the “LEUKOCYTE COUNT” value [3] of the same compound?
The value was 12.7 x10E3/uL.

And the LYMPHOCYTE [3]?
The LYMPHOCYTE was 91%.

And the “MEAN CORPUSCULAR HEMOGLOBIN” value [3]?
Its value is 24.57 pg.

What about the “MEAN CORPUSCULAR HEMOGLOBIN CONCENTRATION” value [3] of the same compound?
The value was 39.47 G/DL.

And the “MEAN CORPUSCULAR VOLUME” value [3]?
Its value is 62.23 fL.

What about the MONOCYTE [3] of the same compound?
The MONOCYTE was 1.67%.

What about the NEUTROPHIL [3] of the same compound?
The NEUTROPHIL was 7.33%.

And the “NUCLEATED RED BLOOD CELLS” value [3]?
The value was 0.33 /100WBC.

What about the “PLATELET COUNT” value [3] of the same compound?
The value was 1165 x10E3/uL.

And the “ALANINE AMINOTRANSFERASE” value [3]?
Its value is 46.33 u/L.

And the ALBUMIN [3]?
The ALBUMIN was 4.1 G/DL.

What about the “ALKALINE PHOSPHATASE” value [3] of the same compound?
Its value is 367.67 u/L.

What about the “ASPARTATE AMINOTRANSFERASE” value [3] of the same compound?
The value was 75.67 u/L.

And the “BLOOD UREA NITROGEN” value [3]?
The value was 14.33 mg/dL.

And the “CARBON DIOXIDE” value [3]?
The value was 27 mmol/L.

And the CHLORIDE [3]?
The CHLORIDE was 102.67 MEQ/L.

And the CHOLESTEROL [3]?
Its CHOLESTEROL is 80.33 mg/dL.

What about the “CREATINE PHOSPHOKINASE” value [3] of the same compound?
Its value is 447.67 u/L.

What about the CREATININE [3] of the same compound?
The CREATININE was 0.21 mg/dL.

And the GLUCOSE [3]?
The GLUCOSE was 137.67 mg/dL.

And the “LACTATE DEHYDROGENASE” value [3]?
Its value is 242 u/L.

What about the LIPASE [3] of the same compound?
The LIPASE was 10.67 u/L.

And the PHOSPHORUS [3]?
Its PHOSPHORUS is 11.97 mg/dL.

What about the POTASSIUM [3] of the same compound?
The POTASSIUM was 6.21 MEQ/L.

And the SODIUM [3]?
The SODIUM was 143.67 MEQ/L.

What about the “TOTAL BILIRUBIN” value [3] of the same compound?
Its value is 0.2 mg/dL.

And the “TOTAL PROTEIN” value [3]?
Its value is 5.87 G/DL.

What about the “URIC ACID” value [3] of the same compound?
Its value is 1.37 mg/dL.
